In series [1] the target is TAK1/TAB1 (Homo sapiens, UniProt O43318). As to the kind of experiment: Inhibition of recombinant human full-length His-tagged TAK1-TAB1 fusion protein (437 to 504 residues) expressed in baculovirus expression system using fluorescein-MAP2K1 as substrate preincubated for 30 mins followed by substrate addition and measured after 60 mins in presence of ATP by lanthascreen TR-FRET assay.

Series [2] concerns the target T1, Phosphatidylinositol 4,5-bisphosphate 3-kinase catalytic subunit delta isoform (Homo sapiens) (UniProt O00329).
T1 sequence (whole entry): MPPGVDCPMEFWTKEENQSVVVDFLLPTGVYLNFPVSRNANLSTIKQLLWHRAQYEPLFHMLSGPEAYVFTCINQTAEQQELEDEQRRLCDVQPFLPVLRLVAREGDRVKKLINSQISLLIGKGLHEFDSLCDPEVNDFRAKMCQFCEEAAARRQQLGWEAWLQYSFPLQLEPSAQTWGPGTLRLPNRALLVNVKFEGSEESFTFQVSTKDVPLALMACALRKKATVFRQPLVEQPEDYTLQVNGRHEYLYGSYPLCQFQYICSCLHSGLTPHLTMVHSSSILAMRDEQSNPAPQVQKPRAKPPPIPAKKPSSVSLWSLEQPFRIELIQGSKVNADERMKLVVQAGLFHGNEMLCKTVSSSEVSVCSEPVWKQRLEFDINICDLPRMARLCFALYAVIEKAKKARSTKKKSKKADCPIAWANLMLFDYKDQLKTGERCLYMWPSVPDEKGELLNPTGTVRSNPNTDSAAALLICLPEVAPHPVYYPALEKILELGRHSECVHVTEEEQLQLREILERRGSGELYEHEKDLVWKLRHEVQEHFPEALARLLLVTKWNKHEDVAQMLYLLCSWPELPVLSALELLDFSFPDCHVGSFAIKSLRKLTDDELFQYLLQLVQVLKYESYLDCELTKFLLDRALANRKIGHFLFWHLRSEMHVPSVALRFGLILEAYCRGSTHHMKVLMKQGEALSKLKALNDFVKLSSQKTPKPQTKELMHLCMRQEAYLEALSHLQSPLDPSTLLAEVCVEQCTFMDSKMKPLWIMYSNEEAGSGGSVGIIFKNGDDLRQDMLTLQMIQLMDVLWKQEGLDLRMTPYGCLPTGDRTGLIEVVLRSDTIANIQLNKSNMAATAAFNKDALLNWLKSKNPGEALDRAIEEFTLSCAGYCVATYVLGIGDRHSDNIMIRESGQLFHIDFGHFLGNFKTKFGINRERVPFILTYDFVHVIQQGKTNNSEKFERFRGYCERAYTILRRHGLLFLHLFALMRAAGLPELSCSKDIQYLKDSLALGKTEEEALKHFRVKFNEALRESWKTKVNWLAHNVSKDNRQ
As to the kind of experiment: Inhibition of wild-type human partial length PIK3CD (R108 to Q1044 residues) expressed in mammalian expression system at 10 uM by Kinomescan method relative to control. The note with it: dose 1.0 µM, in the assay text read “at 1 uM” for “at 10 uM”.

The target of series [3] is Phosphatidylinositol 4-phosphate 5-kinase type-1 gamma (Homo sapiens) (UniProt O60331). As to the kind of experiment: Inhibition wild type human partial length PIP5K1C (M1 to T668 residues) expressed in mammalian expression system at 10 uM by Kinomescan method relative to control. Particulars: dose 1.0 µM, in the assay text read “at 1 uM” for “at 10 uM”.
Series [4] is described as follows: Half life in rat liver S9 fraction at 1 uM measured up to 60 mins in presence of NADPH by LC-MS analysis. In kind it is ADME, subcellular.
Series [5] can be described thus: Apparent permeability across basolateral to apical side in human Caco-2 cells at 2 uM after 2 hrs by LC/MS-MS analysis. The class given is ADME, cell-based. In general terms: Caco-2 cells form a polarised layer with tight junctions and transporters.
Series [6] can be described thus: Aqueous solubility of compound in pH 7.4 PBS buffer measured after 24 hrs by HPLC-UV analysis. The class given is physicochemical.
Series [7] is described as follows: Apparent permeability across apical to basolateral side in human Caco-2 cells at 2 uM after 2 hrs by LC/MS-MS analysis. The class given is ADME, cell-based.
A short description of series [8]: Half life in human liver S9 fraction at 1 uM measured up to 60 mins in presence of NADPH by LC-MS analysis. In kind it is ADME, subcellular.
In series [9] the test system is HCT-15. As to the kind of experiment: Cytotoxicity against TNFalpha-induced human HCT-15 cells assessed as reduction in cell viability up to 10 uM preincubated for 2 hrs followed by TNFalpha stimulation and measured after 72 hrs by celltiter-glo assay. Particulars: dose microM <=10, time 74.0 hrs. The class given is functional, cell-based.
Series [10] can be described thus: Half life in CD-1 mouse liver S9 fraction at 1 uM measured up to 60 mins in presence of NADPH by LC-MS analysis. The class given is ADME, subcellular.

Molecules are shown by their SMILES. Values after ≈ are worked out from the molar mass of the structure shown. Active and inactive are the calls of the source. The calls are words filed in the database; no cut-off is given here.

Chain of TAK1/TAB1 (Q15750 whole entry, the tested form may be a part): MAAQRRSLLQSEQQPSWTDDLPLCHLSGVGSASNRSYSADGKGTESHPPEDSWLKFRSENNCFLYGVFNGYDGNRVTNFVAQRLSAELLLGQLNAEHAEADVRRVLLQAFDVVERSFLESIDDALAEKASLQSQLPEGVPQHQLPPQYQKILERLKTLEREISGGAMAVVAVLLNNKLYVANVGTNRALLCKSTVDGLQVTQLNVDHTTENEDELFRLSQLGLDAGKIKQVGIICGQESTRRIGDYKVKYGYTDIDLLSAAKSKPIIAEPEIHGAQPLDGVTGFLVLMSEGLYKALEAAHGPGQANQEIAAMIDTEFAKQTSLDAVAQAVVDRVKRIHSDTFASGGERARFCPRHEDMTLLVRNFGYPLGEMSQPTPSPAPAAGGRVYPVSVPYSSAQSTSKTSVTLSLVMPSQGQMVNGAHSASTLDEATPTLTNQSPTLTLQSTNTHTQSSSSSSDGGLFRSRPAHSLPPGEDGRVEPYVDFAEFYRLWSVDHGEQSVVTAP
Chain of TAK1/TAB1 (O43318 whole entry, the tested form may be a part): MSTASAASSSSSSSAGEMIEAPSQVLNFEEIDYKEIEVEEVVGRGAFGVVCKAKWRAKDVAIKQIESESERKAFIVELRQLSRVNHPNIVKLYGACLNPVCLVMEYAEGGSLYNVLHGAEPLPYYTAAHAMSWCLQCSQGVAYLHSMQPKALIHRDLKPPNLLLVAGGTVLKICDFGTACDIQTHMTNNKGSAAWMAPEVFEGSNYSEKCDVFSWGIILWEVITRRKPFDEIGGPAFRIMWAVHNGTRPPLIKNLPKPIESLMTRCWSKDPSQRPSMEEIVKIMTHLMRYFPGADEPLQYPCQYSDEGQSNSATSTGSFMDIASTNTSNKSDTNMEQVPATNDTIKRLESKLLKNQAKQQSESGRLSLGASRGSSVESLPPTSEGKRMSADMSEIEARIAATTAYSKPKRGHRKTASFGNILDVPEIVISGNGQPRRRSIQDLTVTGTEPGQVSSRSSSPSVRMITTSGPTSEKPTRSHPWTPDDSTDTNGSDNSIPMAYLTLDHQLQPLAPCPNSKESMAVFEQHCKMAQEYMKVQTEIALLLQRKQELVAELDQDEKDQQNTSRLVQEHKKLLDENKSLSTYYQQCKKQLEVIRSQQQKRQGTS
Chain of Phosphatidylinositol 4-phosphate 5-kinase type-1 gamma (Homo sapiens) (O60331 whole entry, the tested form may be a part): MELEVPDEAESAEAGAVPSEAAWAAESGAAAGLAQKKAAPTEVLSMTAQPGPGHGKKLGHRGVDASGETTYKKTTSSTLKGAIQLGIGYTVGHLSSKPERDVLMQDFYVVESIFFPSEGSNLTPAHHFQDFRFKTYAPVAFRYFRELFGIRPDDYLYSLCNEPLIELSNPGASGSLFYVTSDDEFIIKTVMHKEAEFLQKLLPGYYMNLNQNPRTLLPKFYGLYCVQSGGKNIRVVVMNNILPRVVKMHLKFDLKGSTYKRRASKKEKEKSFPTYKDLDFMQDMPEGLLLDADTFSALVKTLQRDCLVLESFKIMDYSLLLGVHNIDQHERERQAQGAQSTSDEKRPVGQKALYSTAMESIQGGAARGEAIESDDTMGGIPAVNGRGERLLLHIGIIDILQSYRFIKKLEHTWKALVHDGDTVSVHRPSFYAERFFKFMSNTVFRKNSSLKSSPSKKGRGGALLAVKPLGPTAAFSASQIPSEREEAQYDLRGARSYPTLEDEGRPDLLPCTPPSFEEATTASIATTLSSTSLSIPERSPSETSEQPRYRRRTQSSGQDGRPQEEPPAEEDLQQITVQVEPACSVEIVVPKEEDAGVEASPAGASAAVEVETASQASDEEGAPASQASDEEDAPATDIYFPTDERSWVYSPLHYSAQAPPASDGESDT

Take `CNC(=O)CN(Cc1ccccc1OC(F)F)C(=O)c1c[nH]c(C(=O)N(C)C)c1`: the IC50 (in general, the concentration needed to halve the response being measured) in series [1] is 26 µM.

Consider `CNC(=O)C(C(C)C)N(Cc1ccccc1OC(F)F)C(=O)c1c[nH]c(C(=O)N2CCCC2)n1` (stereo unspecified), for which, in [1], the IC50 was greater than 10 µM.

`CNC(=O)CN(Cc1ccccc1OC(F)F)C(=O)c1c[nH]c(C(=O)N2CCC(C)C2)n1` (stereo unspecified): in [1], the IC50 came to 0.9 µM.

For the molecule `CN(Cc1ccccc1OC(F)F)C(=O)c1c[nH]c(C(=O)N2CCCC2)c1`, in [1], the IC50 amounted to 3.5 µM.

Turning to `CNC(=O)CN(Cc1ccccc1OC(F)F)C(=O)c1c[nH]c(C(=O)N2CCC2)n1`, in series [1], the IC50 was 2.6 µM.

Regarding `CCOc1ccccc1CN(CC(=O)NC)C(=O)c1c[nH]c(C(=O)N2CCCC2)c1`, in [1], the IC50 worked out at 2.6 µM.

Regarding `CNC(=O)[C@H](C)N(Cc1ccccc1OC(F)F)C(=O)c1c[nH]c(C(=O)N2CCCC2)n1`, in series [1], the IC50 amounted to 4.5 µM.

For the molecule `NC(=O)CN(Cc1ccccc1OC(F)F)C(=O)c1c[nH]c(C(=O)N2CCCC2)c1`, in [1], the IC50 is 0.9 µM.

On to `CNC(=O)CN(Cc1ccccc1OC(F)F)C(=O)c1c[nH]c(C(=O)N2Cc3ccccc3C2)n1`, for which, in [1], the IC50 was found to be 0.3 µM.

With `O=C(c1c[nH]c(C(=O)N2CCCC2)c1)N(Cc1ncco1)Cc1ccccc1OC(F)F`, the IC50 in series [1] was found to be 3.2 µM.

As for `CNC(=O)CN(Cc1ccccc1OC(F)F)C(=O)c1cc(C(=O)N2CCCC2)n(C)c1`, the IC50 in series [1] is greater than 100 µM.

Take `CNC(=O)CN(Cc1c(F)cccc1OC(F)F)C(=O)c1c[nH]c(C(=O)N2CCCC2)n1`: in series [1], the IC50 was greater than 10 µM.

`CNC(=O)[C@@H](C)N(Cc1ccccc1OC(F)F)C(=O)c1c[nH]c(C(=O)N2CCCC2)n1`: the IC50 in series [1] was found to be 0.3 µM.

`CNC(=O)CN(Cc1c(Cl)cccc1OC(F)F)C(=O)c1c[nH]c(C(=O)N2CCCC2)n1`: the IC50 in [1] is greater than 10 µM.

For the molecule `Nc1ncc(-c2cnn([C@H]3CC[C@H](O)CC3)c2)c2c(Cl)c(-c3cccc4nnsc34)oc12`, in [1], the IC50 was found to be 0.01 µM.

As to `CNC(=O)CN(Cc1ccccc1OC(F)F)C(=O)c1c[nH]c(C(=O)N2CCCCC2)c1`, the IC50 in series [1] was determined as 1.8 µM.

Regarding `CNC(=O)CN(Cc1ccccc1OC)C(=O)c1c[nH]c(C(=O)N2CCCC2)c1`, in [1], the IC50 was found to be 2.8 µM.

`CNC(=O)CN(Cc1ccccc1OC(F)F)C(=O)c1c[nH]c(C(=O)N2CCC(NC(C)=O)C2)n1` (stereo unspecified): the IC50 in series [1] is greater than 10 µM.

For `CNC(=O)CN(Cc1ccccc1)C(=O)c1c[nH]c(C(=O)N2CCCC2)n1`, the IC50 in series [1] is greater than 10 µM.

As to `CNC(=O)CN(Cc1ccccc1OC(F)F)C(=O)c1c[nH]c(C(=O)N2CCCCC2)n1`, in series [1], the IC50 came out at 1.2 µM.

`CNC(=O)CN(Cc1cccc2[nH]ccc12)C(=O)c1c[nH]c(C(=O)N2CCCC2)c1`: the IC50 in [1] is 1.8 µM.

Turning to `CNC(=O)CN(Cc1ccccc1OC(F)F)C(=O)c1c[nH]c(C(=O)N2CCC(F)C2)n1` (stereo unspecified), the IC50 in series [1] worked out at 1.2 µM.

`CC(C)NC(=O)CN(Cc1ccccc1OC(F)F)C(=O)c1c[nH]c(C(=O)N2CCCC2)c1`: the IC50 in series [1] amounted to 1.7 µM.

`CNC(=O)CN(Cc1cc(F)ccc1OC(F)F)C(=O)c1c[nH]c(C(=O)N2CCCC2)n1`: the IC50 in series [1] is greater than 10 µM.

On to `CNC(=O)CN(Cc1ccccc1OC(F)F)C(=O)c1c[nH]c(C(=O)N2CCC(OC)C2)n1` (stereo unspecified), for which, in [1], the IC50 was greater than 10 µM.

For `CNC(=O)CN(Cc1cc(Cl)ccc1OC(F)F)C(=O)c1c[nH]c(C(=O)N2CCCC2)n1`, in [1], the IC50 was greater than 10 µM.

For `CCC(C(=O)NC)N(Cc1ccccc1OC(F)F)C(=O)c1c[nH]c(C(=O)N2CCCC2)n1` (stereo unspecified), in series [1], the IC50 stood at 1 µM.

Consider `CNC(=O)C(C)N(Cc1ccccc1OC(F)F)C(=O)c1c[nH]c(C(=O)N2CCCC2)n1` (stereo unspecified), for which the IC50 in series [1] stood at 0.5 µM.

In the case of `CNC(=O)CN(Cc1ccccc1OC(F)F)C(=O)c1c[nH]c(C(=O)N2CCCC2C)n1` (stereo unspecified), the IC50 in series [1] was determined as 5.7 µM.

For the molecule `CNC(=O)CN(Cc1ccccc1OC(F)F)C(=O)c1c[nH]c(C(=O)N2CCCCCC2)n1`, the IC50 in series [1] is 2.9 µM.

Regarding `CNC(=O)CN(Cc1cccc(OC)c1OC(F)F)C(=O)c1c[nH]c(C(=O)N2CCCC2)n1`, the IC50 in series [1] is greater than 10 µM.

Consider `CCNC(=O)c1cc(C(=O)N(CC(=O)NC)Cc2ccccc2OC(F)F)c[nH]1`, for which the IC50 in [1] was greater than 100 µM.

As to `CNC(=O)CN(Cc1ccccc1OC(F)F)C(=O)c1c[nH]c(C(=O)N2CC3CCCCC3C2)n1` (stereo unspecified), in series [1], the IC50 came to 3.4 µM.

For `CNC(=O)CN(Cc1ccc(OC)cc1OC(F)F)C(=O)c1c[nH]c(C(=O)N2CCCC2)n1`, the IC50 in series [1] is greater than 10 µM.

`CNC(=O)CN(Cc1ccccc1OC(F)F)C(=O)c1c[nH]c(C(=O)N2CCCC2)c1`: the IC50 in series [1] came out at 1.3 µM.

On to `CNC(=O)CN(Cc1cccc(OC(F)F)c1)C(=O)c1c[nH]c(C(=O)N2CCCC2)n1`, for which the IC50 in [1] is greater than 10 µM.

For `CNC(=O)CN(Cc1cccc2c1OCCCO2)C(=O)c1c[nH]c(C(=O)N2CCCC2)c1`, the IC50 in series [1] was 3.4 µM.

For `CNC(=O)CN(Cc1ccccc1OC(F)F)C(=O)c1c[nH]c(C(=O)N2CCC(c3ccccc3)C2)n1` (stereo unspecified), the IC50 in series [1] came out at 2.3 µM.

In the case of `CNC(=O)CN(Cc1ccccc1OC(F)F)C(=O)c1c[nH]c(C(=O)N2Cc3ccc(C(N)=O)cc3C2)n1`, the inhibition in [2] and in [3] was greater than 65% in each case. The IC50 in series [1] is 0.005 µM.

For `CNC(=O)[C@@H](C)N(Cc1ccccc1OC(F)F)C(=O)c1c[nH]c(C(=O)N2Cc3ccc(C(N)=O)cc3C2)n1`, the half-life (as a rule, how long it takes for the measured level to halve) at 1 µM in series [4] is 19 min; in [8], 24 min; in series [10], 29 min. Besides, in series [5], the Papp B→A – broadly, how fast a substance crosses the layer from the basolateral side – at 2 h, 2 µM was determined as 6 ×10⁻⁶ cm/s. Also, the IC50 in series [1] turned out to be 0.002 µM. Moreover, the solubility (commonly the concentration that dissolves in the medium under given conditions) at 24 h in [6] is 5 µM (≈ 2.7 µg/mL). The Papp A→B (usually how fast a substance crosses the layer from the apical side) at 2 h, 2 µM in series [7] is 0.1 ×10⁻⁶ cm/s. The result in series [9] was inactive.

As for `CNC(=O)CN(C(=O)c1c[nH]c(C(=O)N2CCCC2)n1)C(C)c1ccccc1OC(F)F` (stereo unspecified), the IC50 in series [1] was greater than 10 µM.

With `CNC(=O)CN(Cc1ccccc1OC(F)F)C(=O)c1cc(C(=O)N2CCCC2)[nH]n1`, in series [1], the IC50 turned out to be 59 µM.
